Counter-ions that a name gives are not always drawn. Positions of bridges follow the written chain, without caps; N, C: chain ends. Non-standard residues stand in square brackets, D forms with d. Residues, ends and D or L forms follow the SMILES beside them. Orn = NCCC[C@H](N)C(=O)O; Mpa = O=C(O)CCS
assay: in vitro; details: rat, gh3-tre-luc cells, AC50 (uM) modified / 1000

Row | Structure (SMILES) | CC50 at 24 h
1 | CN1C(CSCC(F)(F)F)Nc2cc(Cl)c(S(N)(=O)=O)cc2S1(=O)=O (centres unmarked) [Polythiazide] | > 50 µM
2 | Cc1ccc(C(=O)C(C)CN2CCCCC2)cc1 (centres unmarked) [Tolperisone hydrochloride] | > 50 µM
3 | Cn1sc(Cl)cc1=O [5-Chloro-2-methyl-3(2H)-isothiazolone] | 65.6 µM
4 | C=CCN1CCc2nc(N)sc2CC1 [Talipexole] | > 50 µM
5 | CCCCCCCC[Si](OCC)(OCC)OCC [Triethoxyoctylsilane] | > 90 µM
6 | CN1CCN(CC(=O)N2c3ccccc3C(=O)Nc3cccnc32)CC1 [Pirenzepine] | > 50 µM
7 | O=C1CCC(c2ccc(-n3ccnc3)cc2)=NN1 [Imazodan] | > 50 µM
8 | COC(=O)c1cccc(C(=O)OC)c1 [Dimethyl isophthalate] | > 90 µM
9 | COC(=O)[C@@H](N)Cc1ccc(O)c(O)c1 [Methyl L-DOPA hydrochloride] | 19.9 µM
10 | O=C(NC(O)C(Cl)(Cl)Cl)NC(O)C(Cl)(Cl)Cl (centres unmarked) [Dichloralurea] | > 50 µM
11 | CC1(C)OC[C@@H]2O[C@@]3(C(=O)O)OC(C)(C)O[C@H]3[C@@H]2O1 [Dikegulac] | > 90 µM
12 | OCCc1ccccc1 [2-Phenylethanol] | > 50 µM
13 | Cc1c(NC(C)C)c(=O)n(-c2ccccc2)n1C [Ramifenazone] | > 50 µM
14 | CC(CO)CO [2-Methylpropane-1,3-diol] | > 100 µM
15 | CCc1cccc(N(C)C(N)=Nc2cccc3ccccc23)c1 [Aptiganel hydrochloride] | 19.6 µM
16 | COCC(C)N(C(=O)CCl)c1c(C)csc1C (centres unmarked) [Dimethenamid] | > 90 µM
17 | Cc1cccc2cccnc12 [8-Methylquinoline] | > 90 µM
18 | CCOc1ccc(C[C@H]2NC(=O)CCSSC[C@@H](C(=O)N3CCC[C@H]3C(=O)N[C@@H](CCCN)C(=O)NCC(N)=O)NC(=O)[C@H](CC(N)=O)NC(=O)[C@H]([C@@H](C)O)NC(=O)[C@H]([C@@H](C)CC)NC2=O)cc1 [Atosiban] ([Mpa][dY](Et)ITNCP[Orn]G-NH2; disulfide 1-6) | > 50 µM
19 | c1csc(SSc2cccs2)c1 [2-Thienyl disulfide] | > 90 µM
20 | C[Si](Cl)(c1ccccc1)c1ccccc1 [Chloro(methyl)diphenylsilane] | > 90 µM
21 | CCCCCCCC(=O)OC [Methyl octanoate] | > 90 µM
22 | O=C(C[S+]([O-])Cc1ccco1)NC/C=C\COc1cc(CN2CCCCC2)ccn1 (centres unmarked) [Lafutidine] | > 50 µM
23 | NC1=NCC2c3ccccc3Cc3ccccc3N12 (centres unmarked) [Epinastine hydrochloride] | > 50 µM
24 | CCOC(=O)C1=C(C)NC(C)=C(C(=O)OC)C1c1cccc([N+](=O)[O-])c1 (centres unmarked) [Nitrendipine] | > 50 µM
25 | C=CCNCC=C [Diallylamine] | > 90 µM
26 | CC(C)NCC(O)COc1ccc(CCOCC2CC2)cc1 (centres unmarked) [Betaxolol] | > 50 µM

Row | Structure (SMILES) | CC50 at 24 h
27 | O=C1c2ccccc2C(=O)c2c(O)c(O)cc(O)c21 [Purpurin] | 71.9 µM
28 | CCc1ccc(C=O)cc1 [4-Ethylbenzaldehyde] | > 90 µM
29 | Cc1c(C2(c3cc(Br)c(O)c(Br)c3C)OS(=O)(=O)c3ccccc32)cc(Br)c(O)c1Br [Bromcresol green] | 45.4 µM
30 | CC(C)OC(=O)CCC(=O)OC(C)C [Dipropan-2-yl butanedioate] | > 90 µM
31 | COC(=O)CCCCCCCCC(=O)OC [Dimethyl decanedioate] | > 90 µM
32 | CC(C)COC(=O)c1ccccc1C(=O)OCC(C)C [Diisobutyl phthalate] | > 90 µM
33 | CC(=O)Oc1ccc(C2(c3ccc(OC(C)=O)cc3)C(=O)Nc3ccccc32)cc1 [Oxyphenisatin acetate] | > 50 µM
34 | CCC(=O)c1c(O)cc(O)cc1O [Flopropione] | > 50 µM
35 | CCCCCCCCCCCCC [Tridecane] | > 90 µM
36 | COc1cc2nc(O)nc(O)c2cc1OC [6,7-Dimethoxyquinazoline-2,4(1H,3H)-dione] | > 20 µM
37 | CCCCCSCCCCC [Pentyl sulfide] | > 90 µM
38 | Nc1c(CC(=O)O)cccc1C(=O)c1ccccc1 [Amfenac sodium] | > 50 µM
39 | CC(C)Cc1nccs1 [2-(2-Methylpropyl)thiazole] | > 90 µM
40 | O=C(COP(=O)(O)O)[C@@H](O)[C@H](O)[C@H](O)COP(=O)(O)O [D-Fructose 1,6-bisphosphate trisodium] | > 50 µM
41 | CCCCc1ccc(Cl)cc1 [4-Butylchlorobenzene] | > 90 µM
42 | CCOC(=O)c1ccc(C#Cc2ccc3c(c2)C(C)(C)CCS3)nc1 [Tazarotene] | > 50 µM
43 | O=C(Cn1ccnc1[N+](=O)[O-])NCc1ccccc1 [Benznidazole] | > 50 µM
44 | CCOC(=O)CS [Acetic acid,mercapto-,ethylester] | > 90 µM
45 | C=C(C)C(=O)OCC(C)(C)COC(=O)C(=C)C [2,2-Dimethylpropane-1,3-diyl bis(2-methylprop-2-enoate)] | > 90 µM
46 | O=c1[nH]c(=O)[nH]c(=O)[nH]1 [Cyanuric acid] | > 90 µM
47 | CCCCOc1ccc(C(=O)CCN2CCCCC2)cc1 [Dyclonine hydrochloride] | 4.72 µM
48 | CN1CC(=O)NC1=N [Creatinine] | > 50 µM
49 | CCCCCCCCCCCCOC(C)=O [Dodecyl acetate] | > 90 µM
50 | CCCCCCCCCCCCCCCC(=O)OC[C@@H](O)[C@H]1OC[C@H](O)[C@H]1O [Sorbitan monohexadecanoate] | > 50 µM
51 | Cc1cc(O)cc2c1O[C@](C)(CCC[C@H](C)CCC[C@H](C)CCCC(C)C)CC2 [D-delta-Tocopherol] | > 50 µM
52 | CCN(C(=O)N(CC)c1ccccc1)c1ccccc1 [N,N'-Diethylcarbanilide] | > 90 µM

Row | Structure (SMILES) | CC50 at 24 h
53 | O=C1C(c2[nH]c3ccc(S(=O)(=O)O)cc3c2O)=Nc2ccc(S(=O)(=O)O)cc21 [C.I. Acid Blue 74] | > 90 µM
54 | CCC(=O)O[C@@H]1C[C@H]2CC[C@]1(C)C2(C)C (racemic) [Isobornyl propanoate] | > 90 µM
55 | OC(CCN1CCCCC1)(c1ccccc1)c1ccccc1 [Pridinol] | 25.8 µM
56 | S=C=Nc1ccccc1 [Phenyl isothiocyanate] | > 90 µM
57 | O=C(N[C@@H](Cc1ccccc1)[C@@H](O)C(=O)N1C[C@@H](O)[C@@H](O)C1)c1cc2cc(Cl)ccc2[nH]1 [Ingliforib] | 78.2 µM
58 | N#Cc1cc(Br)c(O)c(Br)c1 [Bromoxynil] | > 90 µM
59 | OC[C@@H](O)[C@@H](O)[C@H](O)[C@H](O)CO [D-Mannitol] | > 90 µM
60 | C=CCCCCCCCC [1-Decene] | > 90 µM
61 | CCN1CCN(c2cc3c(cc2F)c(=O)c(C(=O)O)cn3C2CC2)CC1 [Enrofloxacin] | > 50 µM
62 | OC/C=C/c1ccccc1 [3-Phenyl-2-propen-1-ol] | > 100 µM
63 | CCC(C(N)=O)N1CCCC1=O (centres unmarked) [Etiracetam] | > 50 µM
64 | Clc1sc(Cl)c(Cl)c1Cl [Tetrachlorothiophene] | > 90 µM
65 | c1ccc(OCc2ccc(CCCN3CCOCC3)cc2)cc1 [Fomocaine] | 16.1 µM
66 | C=C(C)C(=O)OCCCCCCCCCCCCC [Tridecyl methacrylate] | > 90 µM
67 | N[C@H](C(=O)O)[C@@H]1CC(Cl)=NO1 [Acivicin] | 3.86 µM
68 | C(COCC1CO1)OCC1CO1 (centres unmarked) [Ethylene glycol diglycidyl ether] | > 90 µM
69 | COC(c1ccccc1)(c1ccccc1)[C@H](Oc1nc(C)cc(C)n1)C(=O)O [Ambrisentan] | > 50 µM
70 | O=C(O)Cc1ccc(-c2ccccc2)cc1 [Felbinac] | > 20 µM
71 | CCCCCCCCCCCCN(CCO)CCO [Lauryldiethanolamine] | 14.8 µM
72 | C[C@]12CC[C@H]3[C@@H](CC[C@@]45O[C@@H]4C(O)=C(C#N)C[C@]35C)[C@@H]1CC[C@@H]2O [Trilostane] | > 90 µM
73 | CCCNCCC [Dipropylamine] | > 90 µM
74 | CCN1CCC[C@H]1CNC(=O)c1cc(S(N)(=O)=O)ccc1OC [Levosulpiride] | > 50 µM
75 | CC(C)[C@@H]1CC[C@@H](C)C[C@H]1OC(=O)c1ccccc1O [Menthyl salicylate] | > 50 µM
76 | CCOC(=O)CC(C)C [Ethyl isovalerate] | > 90 µM
77 | CC(C)Oc1ccccc1O [2-Isopropoxyphenol] | > 90 µM
78 | O=C(O)[C@@H](O)[C@H](O)[C@H](O)[C@@H](O)C(=O)O [Mucic acid] | > 50 µM

same assay, conditions: rat, gh3-tre-luc cells, AC50 (uM) modified / 1000, Tox21_110001=Tox21_111092; viability, 1 nM T3 present, 24 h

Row | Structure (SMILES) | CC50 at 24 h
79 | O=C(O)COc1ccccc1 [Phenoxyacetic acid] | > 50 µM

same assay, conditions: rat, gh3-tre-luc cells, AC50 (uM) modified / 1000, Tox21_110001=Tox21_111697; viability, 1 nM T3 present, 24 h

Row | Structure (SMILES) | CC50 at 24 h
80 | CCNC(C)Cc1cccc(C(F)(F)F)c1 (centres unmarked) [Fenfluramine] | > 50 µM

same assay, conditions: rat, gh3-tre-luc cells, AC50 (uM) modified / 1000, Tox21_110001=Tox21_112618; viability, 1 nM T3 present, 24 h

Row | Structure (SMILES) | CC50 at 24 h
81 | CCC(N)Cc1c[nH]c2ccccc12 (centres unmarked) [Etryptamine] | > 50 µM

same assay, conditions: rat, gh3-tre-luc cells, AC50 (uM) modified / 1000, Tox21_110001=Tox21_200094; viability, 1 nM T3 present, 24 h

Row | Structure (SMILES) | CC50 at 24 h
82 | C#CC(C)(C)O [2-Methyl-3-butyn-2-ol] | > 90 µM

same assay, conditions: rat, gh3-tre-luc cells, AC50 (uM) modified / 1000, Tox21_110001=Tox21_200147; viability, 1 nM T3 present, 24 h

Row | Structure (SMILES) | CC50 at 24 h
83 | CCC(Cl)CCl (centres unmarked) [1,2-Dichlorobutane] | > 90 µM

same assay, conditions: rat, gh3-tre-luc cells, AC50 (uM) modified / 1000, Tox21_110001=Tox21_200675; viability, 1 nM T3 present, 24 h

Row | Structure (SMILES) | CC50 at 24 h
84 | Oc1ccc(Cl)c(Cl)c1 [3,4-Dichlorophenol] | > 90 µM

same assay, conditions: rat, gh3-tre-luc cells, AC50 (uM) modified / 1000, Tox21_110001=Tox21_201854; viability, 1 nM T3 present, 24 h

Row | Structure (SMILES) | CC50 at 24 h
85 | O=C(O)COc1ccccc1 [Phenoxyacetic acid] | > 90 µM

same assay, conditions: rat, gh3-tre-luc cells, AC50 (uM) modified / 1000, Tox21_110001=Tox21_300743; viability, 1 nM T3 present, 24 h

Row | Structure (SMILES) | CC50 at 24 h
86 | CC(C)(C)c1cc([N+](=O)[O-])cc([N+](=O)[O-])c1O [Dinoterb] | 8.14 µM

Source: publication PMC6792352, “Limited Chemical Structural Diversity Found to Modulate Thyroid Hormone Receptor in the Tox21 Chemical Library” (Environmental Health Perspectives, 2019)
